The assay has as its target T1, Sodium- and chloride-dependent taurine transporter (Homo sapiens, UniProt P31641).
T1 sequence (P31641 whole entry): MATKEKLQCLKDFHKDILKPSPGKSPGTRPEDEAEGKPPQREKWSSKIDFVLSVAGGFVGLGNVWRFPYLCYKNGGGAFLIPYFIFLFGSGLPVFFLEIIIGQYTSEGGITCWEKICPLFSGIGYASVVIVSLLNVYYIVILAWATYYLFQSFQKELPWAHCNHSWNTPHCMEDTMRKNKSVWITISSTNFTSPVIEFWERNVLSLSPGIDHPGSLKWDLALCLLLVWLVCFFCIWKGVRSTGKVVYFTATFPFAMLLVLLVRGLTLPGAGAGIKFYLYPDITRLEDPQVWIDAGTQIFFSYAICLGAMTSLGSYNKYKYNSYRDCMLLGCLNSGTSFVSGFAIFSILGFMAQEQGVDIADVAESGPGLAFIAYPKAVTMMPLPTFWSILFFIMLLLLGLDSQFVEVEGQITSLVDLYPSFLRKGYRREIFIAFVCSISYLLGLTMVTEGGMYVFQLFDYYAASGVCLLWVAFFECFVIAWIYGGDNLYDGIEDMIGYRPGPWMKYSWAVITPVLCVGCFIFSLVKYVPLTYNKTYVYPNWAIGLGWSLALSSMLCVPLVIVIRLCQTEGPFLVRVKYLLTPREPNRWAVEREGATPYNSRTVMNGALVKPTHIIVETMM
Nature of the assay: Substrate uptake by the Taurine Transporter (TauT, SLC6A6) as assessed by the fluorescent FLIPR membrane potential dye in HEK-293 JumpIN-SLC6A6 cells (PubChem AID: 1794824). It counts as functional, cell-based, HEK293.

As usually defined, the EC50 is the concentration at which the effect is half-maximal. For the molecule `NCCCC(=O)O` [GAMMA-AMINOBUTYRIC ACID], the EC50 came out at 354 µM.

In the case of `NCCS(=O)(=O)O` [TAURINE], the response was half-maximal at 10 µM (EC50).

These data come from ChEMBL document CHEMBL5209582, “Membrane potential based assay for SLC6A6 using HEK-293 SLC6A6 OE cells” (2022).
